Data as given in patent US5750530A, “Pharmaceutical diketopiperazine compounds” (Xenova Limited, priority 1994, dated 1998).
Counter-ions that a name gives are not always drawn.

Biological target: PAI-1 (Homo sapiens, UniProt P05121)
Assay: biochemical
Format: biochemical
Settings: for IC50: PAI chromogenic substrate assay
Protocol: The present compounds have been tested in a PAI functional assay. In this assay, a compound is incubated with PAI-1 prior to addition to the tPA assay system. Inhibition of PAI-1 results in the production of plasmin from plasminogen. In turn, plasmin cleaves the chromogenic substrate S2251 (Kabi Vitrum) producing pNA (p-nitroaniline) which is detected spectrophotometrically at 405 nm (K. Nilsson et al, Fibrinolysis (1987) 1, 163-168).
The present compounds were tested in a PAI chromogenic substrate assay. In the assay (K. Nilsson, Fibrinolysis (1987) 1, 163-168) each compound was incubated with PAI-1 prior to addition to the tPA assay system. […] In turn, the plasmin cleaved the chromogenic substrate S2251 (Kabi-Vitrum) producing pNA (p-nitroaniline) which was detected spectrophotometrically at 405 nm.
The degrees of inhibition observed in the chromogenic substrate assay at various concentrations, or the IC50 values, for each compound are presented in Table 1.

PAI-1, sequence (P05121 24-402): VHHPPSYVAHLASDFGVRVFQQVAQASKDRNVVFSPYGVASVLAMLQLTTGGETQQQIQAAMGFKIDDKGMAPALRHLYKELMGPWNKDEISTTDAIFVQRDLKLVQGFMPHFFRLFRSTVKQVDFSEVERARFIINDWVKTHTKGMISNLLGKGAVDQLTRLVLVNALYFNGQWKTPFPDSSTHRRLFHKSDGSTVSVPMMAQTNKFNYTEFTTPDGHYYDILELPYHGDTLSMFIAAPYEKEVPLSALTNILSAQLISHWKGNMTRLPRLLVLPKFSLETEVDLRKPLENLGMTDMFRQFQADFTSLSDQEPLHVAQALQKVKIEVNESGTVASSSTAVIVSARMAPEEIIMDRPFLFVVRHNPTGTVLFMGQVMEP

| Structure (SMILES) | % Inhibition (5 μm) [%] | % Inhibition (20 μm) [%] | IC50 [µM] |
| --- | --- | --- | --- |
| COc1cccc(/C=c2\[nH]c(=O)/c(=C/c3ccc(SCCN(C)C)cc3)[nH]c2=O)c1 [Compound 5438, (3Z,6Z)-6-(4-(2-Dimethylaminoethylthio)benzylidene)-3-(3-methoxybenzylidene)-2,5-piperazinedione] |  | 18 |  |
| COc1cccc(/C=c2\[nH]c(=O)/c(=C/c3ccc(SCCN(C)C)cc3)[nH]c2=O)c1 [Compound 5438.HCl, (3Z,6Z)-6-(4-(2-Dimethylaminoethylthio)benzylidene)-3-(3-methoxybenzylidene)-2,5-piperazinedione] | 3 |  |  |
| Cc1cccc(/C=c2\[nH]c(=O)/c(=C/c3ccc(SCCN(C)C)cc3)[nH]c2=O)c1 [Compound 5439, (3Z,6Z)-6-(4-(2-Dimethylaminoethylthio)benzylidene)-3-(3-methylbenzylidene)-2,5-piperazinedione] | 5 | 46 | 15 |
| Cc1cccc(/C=c2\[nH]c(=O)/c(=C/c3ccc(SCCN(C)C)cc3)[nH]c2=O)c1 [Compound 5439.HCl, (3Z,6Z)-6-(4-(2-Dimethylaminoethylthio)benzylidene)-3-(3-methylbenzylidene)-2,5-piperazinedione] | 6 | 35 | 17 |
| CN(C)CCSc1ccc(/C=c2\[nH]c(=O)/c(=C/c3ccc(C(C)(C)C)cc3)[nH]c2=O)cc1 [Compound 5440, (3Z,6Z)-3-(4-(2-Dimethylaminoethylthio)benzylidene)-6-(4-tert-butylbenzylidene)-2,5-piperazinedione] | 11 | 30 |  |
| CC(C)/C=c1\[nH]c(=O)/c(=C/c2ccc(SCCN(C)C)s2)[nH]c1=O [Compound 5448, (3Z,6Z)-3-(5-(2-Dimethylaminoethylthio)-2-thienyl)methylene-6-(2-methylpropylidene)-2,5-piperazinedione] | 0 | 0 |  |
| CN(C)CCSc1ccc(/C=c2\[nH]c(=O)/c(=C/C3CCCCC3)[nH]c2=O)s1 [Compound 5454, (3Z,6Z)-6-Cyclohexylmethylene-3-(5-(2-dimethylaminoethylthio)-2-thienyl)methylene-2,5-piperazinedione] | 47 | 75 | 5.5 |
| CN(C)CCSc1ccc(/C=c2\[nH]c(=O)/c(=C/C3CCCCC3)[nH]c2=O)s1 [Compound 5454.HCl, (3Z,6Z)-6-Cyclohexylmethylene-3-(5-(2-dimethylaminoethylthio)-2-thienyl)methylene-2,5-piperazinedione] | 25 | 69 | 5.3 |
| CN(C)CCSc1ccc(/C=c2\[nH]c(=O)/c(=C/CC3CCCC(C)(C)C3)[nH]c2=O)s1 (stereo not shown) [Compound 5455, (3Z,6Z)-3-(5-(2-Dimethylaminoethylthio)-2-thienyl)methylene-6-(2-(3,3-dimethylcyclohexyl)ethylidene)-2,5-piperazinedione] | 30 | 59 | 6.5 |
| Cc1ccc(/C=c2\[nH]c(=O)/c(=C/c3ccc(SCCN(C)C)s3)[nH]c2=O)cc1 [Compound 5460, (3Z,6Z)-3-(5-(2-Dimethylaminoethylthio)-2-thienyl)methylene-6-(4-methylbenzylidene)-2,5-piperazinedione] | 34 | 83 | 12.2 |
| CN(C)CCSc1ccc(/C=c2\[nH]c(=O)/c(=C/c3ccc([N+](=O)[O-])cc3)[nH]c2=O)cc1 [Compound 5461, (3Z,6Z)-3-(4-(2-Dimethylaminoethylthio)benzylidene)-6-(4-nitrobenzylidene)-2,5-piperazinedione] | 1 | 44 |  |
| CN(C)CCSc1ccc(/C=c2\[nH]c(=O)/c(=C/c3ccc([N+](=O)[O-])cc3)[nH]c2=O)cc1 [Compound 5461.HCl, (3Z,6Z)-3-(4-(2-Dimethylaminoethylthio)benzylidene)-6-(4-nitrobenzylidene)-2,5-piperazinedione] | 10 | 56 |  |
| Cc1ccc(/C=c2\[nH]c(=O)/c(=C/c3ccc(SCCN(C)C)cc3)[nH]c2=O)cc1 [Compound 5463.HCl, (3Z,6Z)-3-(4-(2-Dimethylaminoethylthio)benzylidene)-6-(4-methylbenzylidene)-2,5-piperazinedione] | 78 | 80 | 3.1 |
| COc1ccc(/C=c2\[nH]c(=O)/c(=C/c3ccc(SCCN(C)C)s3)[nH]c2=O)cc1 [Compound 5464, (3Z,6Z)-3-(5-(2-Dimethylaminoethylthio)-2-thienyl)methylene-6-(4-methoxybenzylidene)-2,5-piperazinedione] | 19 | 58 | 10.5 |
| COc1ccc(/C=c2\[nH]c(=O)/c(=C/c3ccc(SCCN(C)C)s3)[nH]c2=O)cc1 [Compound 5464.HCl, (3Z,6Z)-3-(5-(2-Dimethylaminoethylthio)-2-thienyl)methylene-6-(4-methoxybenzylidene)-2,5-piperazinedione] | 17 | 61 | 11.2 |

The remaining lines, values ahead:

| % Inhibition (5 μm) [%] | % Inhibition (20 μm) [%] | IC50 [µM] | Structure (SMILES) |
| --- | --- | --- | --- |
| 18 | 44 | 16.5 | CN(C)CCSc1ccc(/C=c2\[nH]c(=O)/c(=C/c3ccc(Cl)cc3)[nH]c2=O)cc1 [Compound 5437.HCl, (3Z,6Z)-3-(4-Chlorobenzylidene)-6-(4-(2-dimethylaminoethylthio)benzylidene)-2,5-piperazinedione] |
| 20 | 36 |  | CN(C)CCSc1ccc(/C=c2\[nH]c(=O)/c(=C/c3ccc(C(C)(C)C)cc3)[nH]c2=O)cc1 [Compound 5440.HCl, (3Z,6Z)-3-(4-(2-Dimethylaminoethylthio)benzylidene)-6-(4-tert-butylbenzylidene)-2,5-piperazinedione] |
| 31 | 78 | 12.6 | Cc1ccc(/C=c2\[nH]c(=O)/c(=C/c3ccc(SCCN(C)C)s3)[nH]c2=O)cc1 [Compound 5460.HCl, (3Z,6Z)-3-(5-(2-Dimethylaminoethylthio)-2-thienyl)methylene-6-(4-methylbenzylidene)-2,5-piperazinedione] |
| 41 | 43 |  | CN(C)CCSc1ccc(/C=c2\[nH]c(=O)/c(=C/c3ccc(C#N)cc3)[nH]c2=O)cc1 [Compound 5462, (3Z,6Z)-3-(4-Cyanobenzylidene)-6-(4-(2-dimethylaminoethylthio)benzylidene)-2,5-piperazinedione] |
| 45 | 41 |  | CN(C)CCSc1ccc(/C=c2\[nH]c(=O)/c(=C/c3ccc(C#N)cc3)[nH]c2=O)cc1 [Compound 5462.HCl, (3Z,6Z)-3-(4-Cyanobenzylidene)-6-(4-(2-dimethylaminoethylthio)benzylidene)-2,5-piperazinedione] |
| 76 | 78 | 4 | Cc1ccc(/C=c2\[nH]c(=O)/c(=C/c3ccc(SCCN(C)C)cc3)[nH]c2=O)cc1 [Compound 5463, (3Z,6Z)-3-(4-(2-Dimethylaminoethylthio)benzylidene)-6-(4-methylbenzylidene)-2,5-piperazinedione] |
